Measured values from patent US20100256123A1, “P2X4 RECEPTOR ANTAGONIST” (NIPPON CHEMIPHAR CO., LTD., priority 2006, published 2010).

Target: T1, human P2X4 receptor (Homo sapiens, UniProt Q99571)
T1 sequence (Q99571 1-388): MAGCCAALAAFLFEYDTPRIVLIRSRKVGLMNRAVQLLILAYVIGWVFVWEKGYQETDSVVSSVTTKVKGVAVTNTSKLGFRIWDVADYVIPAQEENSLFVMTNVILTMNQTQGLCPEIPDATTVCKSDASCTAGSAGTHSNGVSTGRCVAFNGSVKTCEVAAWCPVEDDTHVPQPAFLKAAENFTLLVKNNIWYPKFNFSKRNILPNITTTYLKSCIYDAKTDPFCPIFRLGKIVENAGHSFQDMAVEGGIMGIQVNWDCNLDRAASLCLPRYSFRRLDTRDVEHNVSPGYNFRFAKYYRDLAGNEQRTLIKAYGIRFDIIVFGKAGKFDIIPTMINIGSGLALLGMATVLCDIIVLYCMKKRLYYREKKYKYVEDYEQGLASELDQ
Experiment: P2X4 receptor antagonism: ATP-induced calcium change (Fura2-AM) in 1321N1 cells stably expressing human P2X4 receptor
Type: cell-based
Conditions: ATP (10 μm)-induced maximal calcium change = 100% control, compound applied 10 minutes before ATP; for Inhibition ratio % (at 10^−5 M): Pharmacological Experimental 2
Protocol: The P2X4 receptor antagonisms of the compounds according to the invention were determined in the following manner.
(§1) 1321N1 cells were transfected human P2X4 receptor-encoding expression vector using a EUGENE 6 transfection reagent (Roche). After cultivation of one week, it was confirmed that P2X4 receptor was stably expressed. Cells were loaded with Fura2-AM calcium fluorescent dye (SIGMA) and the fluorescence changes were monitored using Aqua-Cosmos (Hamamatsu Photonics). ATP (10 μm)-induced maximal […] calcium change was defined as 100% of control response to calculate the inhibition percentage of test compounds at each concentration. Test compounds were treated onto cells 10 minutes before ATP stimulation.
as §1, with “FuGENE” for “EUGENE”
The experimental procedures of Example 10 were repeated.

Compound	inhibition ratio (at 10^−5M, Pharmacological Experimental 1) [%]	Inhibition ratio % (at 10^−5 M) [%]
O=C1CN=C(c2cccc(O)c2)c2ccc3ccccc3c2N1 [Example 2, 5-(3-Hydroxyphenyl)-1,3-dihydro-2H-naptho-[1,2-e]-1,4-diazepin-2-one]	69	
O=C1CN=C(c2ccc(O)c(O)c2)c2ccc3ccccc3c2N1 [Example 9, 5-(3,4-Dihydroxyphenyl)-1,3-dihydro-2H-naptho[1,2-e]-1,4-diazepin-2-one]		63
O=C1CN=C(c2ccc(O)cc2)c2ccc3ccccc3c2N1 [Example 4, 5-(4-Hydroxyphenyl)-1,3-dihydro-2H-naptho-[1,2-e]-1,4-diazepin-2-one]		53
